Laboratory results: paper PMC2362940 (British Journal of Cancer, 1999)
Entries after “also recorded” stand apart in the source; their conditions may differ. Like-named read-outs stand apart in the source and are kept apart here.

What was measured:
MCF-7/ADR cells = assay: MTT cytotoxicity of taxol with P-gp inhibitors at 10% or 50% FCS in MCF-7/ADR cells; format: cell-based, human; conditions: for Resistance of MCF-7/ADR cells: MA Russell and DR Ferry, unpublished data; for EC50: Homo sapiens, NCI/ADR-RES
MES-SA cells [1] = assay: Radiolabelled drug accumulation assay in MES-SA cells; format: cell-based, human; conditions: data not shown
[2] = tested on: P388/Dox leukaemia or C26 colon carcinoma; parameters: method as in Hyafil et al, 1993; conditions: single dose of GF120918; ref Hyafil et al, 1993; cited from earlier work
COR-L23 R = assay: Sensitization of MRP1-expressing COR-L23 R cells to doxorubicin; format: cell-based; conditions: 1 M (µM) GF120918, unpublished data
MES-Dx5 cells [3] = assay: Reversal of MES-Dx5 resistance to cytotoxics by P-gp inhibitor (MTT assay, % maximal shift); format: cell-based, human; conditions: for EC50: Homo sapiens, MES-Dx5, MTT 72 h
MES-Dx5 cells [4] = assay: MTT dye-based cytotoxicity assay, 72-h exposure, P-gp-expressing MES-Dx5 cells; format: cell-based, human; conditions: for EC50: Homo sapiens, read-out: EC50 of cytotoxic drug in MES-Dx5 cells; for EC50 / Resistance factor (RF) of MES-Dx5 relative to MES-SA cells: MTT
P-gp [5] = tested on: P-gp; parameters: method as in Hyafil et al, 1993; conditions: ref Hyafil et al, 1993; cited from earlier work
MES-Dx5 cells [6] = assay: Radiolabelled drug accumulation assay in MES-Dx5 cells; format: cell-based, human; conditions: for EC50: Homo sapiens, MES-Dx5, 4 h; for Accumulation deficit of MES-Dx5 relative to parental MES-SA cells: steady state
P-gp [7] = assay: as above; format: cell-based, human; conditions: human, MES-Dx5 cells (P-gp-expressing); read-out: EC50 for reversal of the accumulation deficit, range over all three radiolabelled cytotoxics
P-gp [8] = biological target: P-gp (Homo sapiens, UniProt P08183); assay: in vitro; conditions: membrane preparations of MES-Dx5 cells (P-gp-expressing), MES-Dx5 membranes
[9] = biological target: T1, P-gp in MES-Dx5 membranes (Homo sapiens, UniProt P08183)
[10] = biological target: T1, P-gp in MES-Dx5 membranes; assay: biochemical
MES-SA cells [11] = assay: MTT dye-based cytotoxicity assay, 72-h exposure, parental MES-SA cells; conditions: Homo sapiens, read-out: EC50 of cytotoxic drug in MES-SA cells
MCF-7 WT cells [12] = assay: cells; conditions: Homo sapiens, MCF7, 72 h
MCF-7 WT cells [13] = tested on: MCF-7 WT cells
[14] = inhibition of [3H]-vinblastine binding, single representative experiment, Figure 7B, 5 nM [3H]-vinblastine

T1 sequence (P08183 whole entry): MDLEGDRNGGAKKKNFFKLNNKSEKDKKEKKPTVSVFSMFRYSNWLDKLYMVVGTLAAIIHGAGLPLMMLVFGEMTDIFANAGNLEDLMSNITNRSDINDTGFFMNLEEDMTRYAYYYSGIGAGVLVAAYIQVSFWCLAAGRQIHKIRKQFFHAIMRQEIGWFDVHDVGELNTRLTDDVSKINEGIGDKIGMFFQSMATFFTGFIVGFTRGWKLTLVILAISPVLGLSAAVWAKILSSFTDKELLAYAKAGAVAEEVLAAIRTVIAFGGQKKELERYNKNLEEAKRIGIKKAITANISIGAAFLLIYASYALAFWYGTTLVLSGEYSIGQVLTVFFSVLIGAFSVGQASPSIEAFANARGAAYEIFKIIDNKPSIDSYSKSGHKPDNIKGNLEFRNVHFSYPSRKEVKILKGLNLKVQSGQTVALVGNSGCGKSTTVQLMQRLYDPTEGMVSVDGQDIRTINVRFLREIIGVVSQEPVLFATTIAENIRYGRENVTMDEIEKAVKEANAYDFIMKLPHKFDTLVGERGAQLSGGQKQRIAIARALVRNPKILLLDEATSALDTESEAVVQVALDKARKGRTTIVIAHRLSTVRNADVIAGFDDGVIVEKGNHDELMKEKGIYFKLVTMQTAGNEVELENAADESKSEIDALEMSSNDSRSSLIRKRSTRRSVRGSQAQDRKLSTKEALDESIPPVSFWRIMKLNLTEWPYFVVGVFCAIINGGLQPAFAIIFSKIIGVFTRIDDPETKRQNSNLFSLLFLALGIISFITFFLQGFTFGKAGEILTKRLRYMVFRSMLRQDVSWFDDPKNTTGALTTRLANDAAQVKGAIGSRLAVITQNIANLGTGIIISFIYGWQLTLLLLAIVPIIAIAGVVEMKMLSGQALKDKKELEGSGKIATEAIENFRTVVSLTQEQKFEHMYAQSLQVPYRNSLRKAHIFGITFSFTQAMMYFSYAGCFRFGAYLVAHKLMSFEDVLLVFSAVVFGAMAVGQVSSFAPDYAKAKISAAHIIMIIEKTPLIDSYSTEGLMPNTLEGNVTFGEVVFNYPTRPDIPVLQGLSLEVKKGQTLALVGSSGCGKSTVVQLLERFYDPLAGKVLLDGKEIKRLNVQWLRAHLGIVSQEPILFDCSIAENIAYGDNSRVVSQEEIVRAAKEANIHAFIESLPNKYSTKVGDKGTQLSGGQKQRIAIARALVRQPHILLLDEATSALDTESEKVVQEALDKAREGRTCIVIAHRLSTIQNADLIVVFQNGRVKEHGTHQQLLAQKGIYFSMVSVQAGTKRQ
Chain of P-gp (P08183 whole entry): as above

With `CO[C@@H]1[C@H](N(C)C(=O)c2ccccc2)C[C@H]2O[C@]1(C)n1c3ccccc3c3c4c(c5c6ccccc6n2c5c31)C(=O)NC4` [CGP 41251] the “Ratio of EC50s (50% FCS vs 10% FCS) in presence of P-gp inhibitor” value (MCF-7/ADR cells; MCF-7/ADR, taxol, MTT 72 h) was 30 fold.
In the case of `COC(=O)C1=C(C)NC(C)=C(C(=O)OCCCN2CCC(c3ccccc3)(c3ccccc3)CC2)[C@@H]1c1cccc([N+](=O)[O-])c1` [Dexniguldipine], the “Ratio of EC50s (50% FCS vs 10% FCS) in presence of P-gp inhibitor” value (MCF-7/ADR cells) is reported as 37 fold.
In the case of `COc1cc2c(cc1OC)CN(CCc1ccc(NC(=O)c3cccc4c(=O)c5cccc(OC)c5[nH]c34)cc1)CC2` [GF120918], the “Effect on cellular content of radiolabelled cytotoxics in sensitive MES-SA cells” value (MES-SA cells [1]) is listed as “did not increase”, the “Sensitization of xenograft-bearing mice to doxorubicin” value [2] is listed as “sensitized mice” and the “Sensitization of COR-L23 R (MRP1, not P-gp) to doxorubicin” value (COR-L23 R) is listed as “not sensitized”. The EC50 (MES-Dx5 cells [3]; read-out: EC50 of GF120918 to reverse resistance (shifts sensitivity by 50%) to doxorubicin, cytotoxic doxorubicin) was 21 ± 6 nM, the EC50 (MES-Dx5 cells [3]; read-out: EC50 of GF120918 to reverse resistance (shifts sensitivity by 50%) to etoposide, cytotoxic etoposide) was 7 ± 2 nM and the EC50 (MES-Dx5 cells [3]; read-out: EC50 of GF120918 to reverse resistance (shifts sensitivity by 50%) to taxol, cytotoxic taxol) was 91 ± 23 nM. For the same compound, the EC50 (MES-Dx5 cells [3]; read-out: EC50 of GF120918 to reverse resistance (shifts sensitivity by 50%) to taxotere, cytotoxic taxotere) was 57 ± 14 nM, the EC50 (MES-Dx5 cells [3]; read-out: EC50 of GF120918 to reverse resistance (shifts sensitivity by 50%) to vinblastine, cytotoxic vinblastine) was 19 ± 3 nM and the “Lowest concentration exhibiting a measurable reversal of resistance” value (MES-Dx5 cells [3]; MES-Dx5, MTT assay) was […]. For the same compound, the “Extent of reversal of MES-Dx5 resistance, all tested cytotoxic drugs” value (MES-Dx5 cells [3]; to level of parental MES-SA cells) was “reversed resistance completely; also recorded: fully reverse resistance”, the “Cytotoxic effect of GF120918 alone” value (MES-Dx5 cells [4]; MTT assay) was “did not produce a cytotoxic effect” and the “Concentration at which activity was consistently achieved in vitro” value (P-gp [5]) was […]. For the same compound, the EC50 (MES-Dx5 cells [6]; read-out: [GF120918] reverses accumulation-deficit by 50%, [3H]-taxol) was 37 nM, the EC50 (MES-Dx5 cells [6]; read-out: [GF120918] reverses accumulation-deficit by 50%, [3H]-vinblastine) was 48 nM and the EC50 (MES-Dx5 cells [6]; read-out: [GF120918] reverses accumulation-deficit by 50%, [14C]-doxorubicin) was 64 nM. It also gave an EC50 (P-gp [7]) of […].
In the case of `C/C=C/C[C@@H](C)C(=O)[C@H]1C(=O)N[C@@H](C(C)C)C(=O)N(C)CC(=O)N(C)[C@@H](CC(C)C)C(=O)N[C@@H](C(C)C)C(=O)N(C)[C@@H](CC(C)C)C(=O)N[C@@H](C)C(=O)N[C@H](C)C(=O)N(C)[C@@H](CC(C)C)C(=O)N(C)[C@@H](CC(C)C)C(=O)N(C)[C@@H](C(C)C)C(=O)N1C` [PSC 833], the “Ratio of EC50s (50% FCS vs 10% FCS) in presence of P-gp inhibitor” value (MCF-7/ADR cells; MCF-7/ADR, taxol, MTT 72 h) is reported as 19 fold.
For `CC(=O)O[C@H]1C(=O)[C@@]2(C)[C@H]([C@H](OC(=O)c3ccccc3)[C@]3(O)C[C@H](OC(=O)[C@H](O)[C@@H](NC(=O)c4ccccc4)c4ccccc4)C(C)=C1C3(C)C)[C@]1(OC(C)=O)CO[C@@H]1C[C@@H]2O` [[3 H]-taxol], the “Accumulation deficit of MES-Dx5 relative to parental MES-SA cells” value (MES-Dx5 cells [6]) was 20%.
With `CC[C@]1(O)C[C@@H]2CN(CCc3c([nH]c4ccccc34)[C@@](C(=O)OC)(c3cc4c(cc3OC)N(C)[C@H]3[C@@](O)(C(=O)OC)[C@H](OC(C)=O)[C@]5(CC)C=CCN6CC[C@]43[C@@H]65)C2)C1` [[3 H]-vinblastine] the Kd (P-gp [8]; KD of [3H]-vinblastine binding, saturation analysis (mean)) was 7.8 ± 1.4 nM, the “Bmax of [3H]-vinblastine binding in the presence of ATP and MgCl2” value ([9]; Figure 6, 1 mM ATP and 3 mM MgCl2, single experiment) was 10.9 pmol mg-1 protein and the “Bmax of [3H]-vinblastine binding, single representative experiment” value ([9]; Figure 6, control without ATP/MgCl2) was 8.6 pmol mg-1 protein. For the same compound, the “Bmax of [3H]-vinblastine binding (mean)” value ([9]; MES-Dx5 membranes) was 5.2 pmol mg-1 protein and the “Bmax of [3H]-vinblastine binding (mean)” value ([9]; MES-Dx5 membranes, listed as [^3H]-vinblastine) was 5.2 ± 1.6 pmol mg-1 protein.
With `COc1cccc2c1C(=O)c1c(O)c3c(c(O)c1C2=O)C[C@@](O)(C(=O)CO)C[C@@H]3O[C@H]1C[C@H](N)[C@H](O)[C@H](C)O1` [[14 C]-doxorubicin] the “Accumulation deficit of MES-Dx5 relative to parental MES-SA cells” value (MES-Dx5 cells [6]) was 20%.
In the case of `COc1cccc2c1C(=O)c1c(O)c3c(c(O)c1C2=O)C[C@@](O)(C(=O)CO)C[C@@H]3O[C@H]1C[C@H](N)[C@H](O)[C@H](C)O1` [doxorubicin], the “Resistance of MCF-7/ADR cells” value (MCF-7/ADR cells) is reported as 200 fold, the EC50 (MES-Dx5 cells [4]) is reported as 534 nM and the Ki ([10]; inhibition of [3H]-vinblastine binding to P-gp (mean), MES-Dx5 membranes, 21C) is reported as 6.94 ± 2.1 µM. For the same compound, the Ki [10, 14] was 112 µM and the EC50 (MES-SA cells [11]) was 58 nM.
Work on `COc1cc([C@@H]2c3cc4c(cc3[C@@H](O[C@@H]3O[C@@H]5CO[C@@H](C)O[C@H]5[C@H](O)[C@H]3O)[C@H]3COC(=O)[C@H]23)OCO4)cc(OC)c1O` [etoposide] yielded an EC50 (MES-Dx5 cells [4]) of 6850 nM and an EC50 (MES-SA cells [11]) of 3000 nM.
In the case of `CC(=O)O[C@H]1C(=O)[C@@]2(C)[C@H]([C@H](OC(=O)c3ccccc3)[C@]3(O)C[C@H](OC(=O)[C@H](O)[C@@H](NC(=O)c4ccccc4)c4ccccc4)C(C)=C1C3(C)C)[C@]1(OC(C)=O)CO[C@@H]1C[C@@H]2O` [taxol], the EC50 (MCF-7 WT cells [12]; read-out: EC50 of taxol without inhibitor, 10% FCS) is reported as 6 nM, the EC50 (MCF-7 WT cells [12]; read-out: EC50 of taxol without inhibitor, 50% FCS) is reported as 5 nM and the EC50 (MCF-7/ADR cells; read-out: EC50 of taxol without inhibitor, 10% FCS, MCF-7/ADR, MTT 72 h) is reported as 8.5 µM. The EC50 (MCF-7/ADR cells; read-out: EC50 of taxol without inhibitor, 50% FCS, MCF-7/ADR, MTT 72 h) was 4.6 µM, the “Resistance of MCF-7/ADR cells” value (MCF-7/ADR cells) was 1000 fold and the EC50 (MES-Dx5 cells [4]) was 470 nM. For the same compound, the “Resistance factor (RF) of MES-Dx5 relative to MES-SA cells” value (MES-Dx5 cells [4]) was 94 fold, the Ki at 3 h (P-gp [8]; probe [3H]-vinblastine, Ki, inhibition of [3H]-vinblastine binding to P-gp (mean), 3 h, 21C) was 400 ± 140 nM and the Ki [10, 14] was 0.096 µM. The “Ratio of EC50s (50% FCS vs 10% FCS), taxol without inhibitor” value (MCF-7 WT cells [13]) was 0.84, the EC50 (MES-SA cells [11]) was 5 nM and the “Maximal displacement of [3H]-vinblastine bound to P-gp” value ([9]; MES-Dx5 membranes, allosteric inhibitor) was 40%.
With `CC(=O)O[C@@]12CO[C@@H]1C[C@H](O)[C@@]1(C)C(=O)[C@H](O)C3=C(C)[C@@H](OC(=O)[C@H](O)[C@@H](NC(=O)OC(C)(C)C)c4ccccc4)C[C@@](O)([C@@H](OC(=O)c4ccccc4)[C@H]21)C3(C)C` [taxotere] the EC50 (MES-Dx5 cells [4]) was 93 nM, the “Resistance factor (RF) of MES-Dx5 relative to MES-SA cells” value (MES-Dx5 cells [4]) was 19 fold and the EC50 (MES-SA cells [11]) was 5 nM.
For `CC[C@]1(O)C[C@@H]2CN(CCc3c([nH]c4ccccc34)[C@@](C(=O)OC)(c3cc4c(cc3OC)N(C)[C@H]3[C@@](O)(C(=O)OC)[C@H](OC(C)=O)[C@]5(CC)C=CCN6CC[C@]43[C@@H]65)C2)C1` [vinblastine], the EC50 (MES-Dx5 cells [4]) was 30 nM and the EC50 (MES-SA cells [11]) was 3 nM.
